Source: US12331041B2, “GLP-1 receptor agonists and uses thereof” (Pfizer Inc., priority 2018, dated 2025)
Structures can show the parent of a compound that is named as a salt.

How the values were obtained:
human GLP-1R [1] = target: T1, human GLP-1R (Homo sapiens, UniProt P43220, G168S); assay: CHO GLP-1R Clone H6 - Assay 1 (HTRF cAMP agonist assay); type: cell-based; settings: for EC50: CHO Clone H6, high GLP-1R density, cAMP, geometric mean; for Emax / Assay 1 Emax (%): CHO Clone H6, relative to saturating full agonist GLP-1 7-36 (1 μM), arithmetic mean
T1 construct: expressed in transfected cells
T1 sequence (P43220 24-463 G168S): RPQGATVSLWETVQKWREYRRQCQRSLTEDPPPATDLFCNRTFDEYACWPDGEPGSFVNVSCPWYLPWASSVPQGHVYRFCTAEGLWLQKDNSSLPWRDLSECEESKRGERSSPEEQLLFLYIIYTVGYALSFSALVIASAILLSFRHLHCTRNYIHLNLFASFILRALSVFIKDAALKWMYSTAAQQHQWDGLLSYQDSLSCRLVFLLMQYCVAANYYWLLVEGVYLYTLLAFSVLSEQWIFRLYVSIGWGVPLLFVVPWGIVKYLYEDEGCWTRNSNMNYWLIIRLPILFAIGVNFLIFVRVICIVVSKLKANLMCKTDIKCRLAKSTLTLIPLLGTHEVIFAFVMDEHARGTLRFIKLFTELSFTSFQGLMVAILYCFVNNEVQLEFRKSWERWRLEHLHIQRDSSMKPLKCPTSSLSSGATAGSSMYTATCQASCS
Description: GLP-1R-mediated agonist activity was determined with a cell-based functional assay utilizing an HTRF (Homogeneous Time-Resolved Fluorescence) cAMP detection kit (cAMP HI Range Assay Kit; CisBio cat #62AM6PEJ) that measures cAMP levels in the cell. The method is a competitive immunoassay between native cAMP produced by the cells and exogenous cAMP labeled with the dye d2, The tracer binding is visualized by a mAb anti-cAMP labeled with Cryptate. The specific signal (i.e. energy transfer) is inversely proportional to the concentration of cAMP in either standard or experimental sample.
The human GLP-1R coding sequence (NCBI Reference Sequence NP_002053.3, including naturally-occurring variant Gly168Ser) was subcloned into pcDNA3 (Invitrogen) and a cell line stably expressing the receptor was isolated (designated Clone H6).
(§1) A 1 mL sample of the cell suspension in growth media was counted on a Becton Dickinson ViCell to determine cell viability and cell count per mL. The remaining cell suspension was then adjusted with growth media to deliver 2000 viable cells per well using a Matrix Combi Multidrop reagent dispenser, and the cells were dispensed into a white 384 well tissue culture treated assay plate (Corning 3570). The assay plate was then incubated for 48 hours at 37° C. in a humidified environment in 5% carbon dioxide.
Varying concentrations of each compound to be tested (in DMSO) were diluted in assay buffer (HBSS with Calcium/Magnesium (Lonza/BioWhittaker cat #10-527F)/0.1% BSA (Sigma Aldrich cat #A7409-1L)/20 mM HEPES (Lonza/BioWhittaker cat #17-737E) containing 100 μM 3-isobutyl-1-methylxanthin (IBMX; Sigma cat #15879). The final DMSO concentration is 1%.
After 48 hours, the growth media was removed from the assay plate wells, and the cells were treated with 20 μL of the serially diluted compound in assay buffer for 30 minutes at 37° C. in a humidified environment in 5% carbon dioxide. Following the 30 minute incubation, 10 μL of labeled d2 cAMP and 10 μL of anti-cAMP antibody (both diluted 1:20 in cell lysis buffer; as described in the manufacturer's assay protocol) were added to each well of the assay plate. The plates were then incubated at room temperature and after 60 minutes, changes in the HTRF signal were read with an Envision 2104 multi-label plate reader using excitation of 330 nm and emissions of 615 and 665 nm. Raw data were converted to nM cAMP by interpolation from a cAMP standard curve (as described in the manufacturer's assay protocol) and the percent effect was determined relative to a saturating concentration of the full agonist GLP-17-36 (1 μM) included on each plate. EC50 determinations were made from agonist dose-response curves analyzed with a curve fitting program using a 4-parameter logistic dose response equation.

human GLP-1R [2] = target: T2, human GLP-1R (Homo sapiens, UniProt P43220, L260F); assay: CHO GLP-1R Clone C6 - Assay 2 (HTRF cAMP agonist assay); type: cell-based; settings: for EC50: CHO clone C6, low GLP-1R density, cAMP, geometric mean; for Emax / Assay 2 Emax (%): CHO clone C6, relative to saturating full agonist GLP-1 (1 μM), arithmetic mean
T2 construct: expressed in transfected cells; host or cells: CHO Flp-In T-REx, clonal line C6 (pcDNA5-FRT-TO)
T2 sequence (P43220 24-463 L260F): as the sequence (P43220 24-463 G168S) above, with S145G, L237F counted along it
Description: GLP-1R-mediated agonist activity was determined with a cell-based functional assay utilizing an HTRF (Homogeneous Time-Resolved Fluorescence) cAMP detection kit (cAMP HI Range Assay Kit; Cis Bio cat #62AM6PEJ) that measures cAMP levels in the cell. The method is a competitive immunoassay between native cAMP produced by the cells and exogenous cAMP labeled with the dye d2. The tracer binding is visualized by a mAb anti-cAMP labeled with Cryptate. The specific signal (i.e. energy transfer) is inversely proportional to the concentration of cAMP in either a standard or an experimental sample.
The human GLP-1R coding sequence (NCBI Reference Sequence NP_002053.3, including naturally-occurring variant Leu260Phe) was subcloned into pcDNA5-FRT-TO and a clonal CHO cell line stably expressing a low receptor density was isolated using the Flp-In™ T-Rex™ System, as described by the manufacturer (ThermoFisher).
as §1, with “deliver 1600” for “deliver 2000”, “48 h” for “48 hours”, “environment (95% O2,” for “environment in”, “5% CO2)” for “5% carbon dioxide.”
Varying concentrations of each compound to be tested (in DMSO) were diluted in assay buffer [HBSS with Calcium/Magnesium (Lonza/BioWhittaker cat #10-527F)/0.1% BSA (Sigma Aldrich cat #A7409-1L)/20 mM HEPES (Lonza/BioWhittaker cat #17-737E)] containing 100 μM 3-isobutyl-1-methylxanthin (IBMX; Sigma cat #15879). The final DMSO concentration in the compound/assay buffer mixture is 1%.
After 48 h, the growth media was removed from the assay plate wells, and the cells were treated with 20 μL of the serially diluted compound in assay buffer for 30 min at 37° C. in a humidified environment (95% O2, 5% CO2). Following the 30 min incubation, 10 μL of labeled d2 cAMP and 10 μL of anti-cAMP antibody (both diluted 1:20 in cell lysis buffer; as described in the manufacturer's assay protocol) were added to each well of the assay plate. The plates were then incubated at room temperature and after 60 minutes, changes in the HTRF signal were read with an Envision 2104 multi-label plate reader using excitation of 330 nm and emissions of 615 and 665 nm. Raw data were converted to nM cAMP by interpolation from a cAMP standard curve (as described in the manufacturer's assay protocol) and the percent effect was determined relative to a saturating concentration of the full agonist GLP-1 (1 μM) included on each plate. EC50 determinations were made from agonist dose response curves analyzed with a curve fitting program using a 4-parameter logistic dose response equation.

Row | Structure (SMILES) | EC50 (human GLP-1R [1]) [nM] | Emax (human GLP-1R [1]) [%] | EC50 (human GLP-1R [2]) [nM] | Emax (human GLP-1R [2]) [%] | Assay 1 Emax (%) (human GLP-1R [1]) | Assay 2 Emax (%) (human GLP-1R [2])
1 | N#Cc1ccc(COc2cccc(N3CCC4(CC3)CC4c3nc4ccc(C(=O)O)cc4n3CC3CCO3)n2)c(F)c1 (single isomer, unassigned) [Example 35] | 330 | 85 | 13000 | 100 |  | 
2 | N#Cc1ccc(COc2cccc(N3CCC4(CC3)CC4c3nc4ccc(C(=O)O)cc4n3CC3CCO3)n2)c(F)c1 (single isomer, unassigned) [Example 36] | 0.48 |  | 15 |  | 83 | 90
3 | COCCn1c(C2CC23CCN(c2cccc(OCc4ccc(Cl)cc4F)n2)CC3)nc2ncc(C(=O)O)cc21 (single isomer, unassigned) [Example 49, 2-(6-{6-[(4-chloro-2-fluorobenzyl)oxy]pyridin-2-yl}-6-azaspiro[2.5]oct-1-yl)-1-(2-methoxyethyl)-1H-imidazo[4,5-b]pyridine-6-carboxylic acid, ENT-2] | 18 |  | 290 | 87 | 75 | 
4 | O=C(O)c1ccc2nc(C3CC34CCN(c3ncc(F)c(OCc5ccc(Cl)cc5F)n3)CC4)n(CC3CCO3)c2c1 (single isomer, unassigned) [Example 51] | 470 |  | > 20000 |  | 71 | 
5 | N#Cc1ccc(COc2ccc(F)c(N3CCC4(CC3)CC4c3nc4ccc(C(=O)O)cc4n3CC3CCO3)n2)c(F)c1 (single isomer, unassigned) [Example 54] | 63 | 76 | 3400 | 93 |  | 
6 | N#Cc1ccc(COc2ccc(F)c(N3CCC4(CC3)CC4c3nc4ccc(C(=O)O)cc4n3CC3CCO3)n2)c(F)c1 (single isomer, unassigned) [Example 55] | 0.33 |  | 5.8 |  | 83 | 82
7 | COCCn1c(C2CC23CCN(c2ccnc(OCc4ccc(Cl)cc4F)n2)CC3)nc2ccc(C(=O)O)cc21 (single isomer, unassigned; ent-2) [Example 47, Ammonium 2-(6-{2-[(4-chloro-2-fluorobenzyl)oxy]pyrimidin-4-yl}-6-azaspiro[2.5]oct-1-yl)-1-(2-methoxyethyl)-1H-benzimidazole-6-carboxylate, ENT-2] | 86 |  | 1700 | 100 | 92 | 
8 | N#Cc1ccc(COc2nc(N3CCC4(CC3)CC4c3nc4ccc(C(=O)O)cc4n3CC3CCO3)ccc2F)c(F)c1 (single isomer, unassigned; ent-2) [Example 53] | 0.57 |  | 14 |  | 83 | 90
9 | O=C(O)c1ccc2nc(CC3CCC(c4cccc(OCc5ccc(Cl)cc5F)n4)CC3)n(C[C@@H]3CCO3)c2c1 (single isomer, unassigned; isomer 1) [Example 79] | > 12000 |  | > 20000 |  |  | 
10 | O=C(O)c1ccc2nc(CN3CCC(c4cccnc4OCc4ccc(Cl)cc4F)CC3)n(C[C@@H]3CCO3)c2c1 [Example 1, Ammonium 2-[(4-{2-[(4-chloro-2-fluorobenzyl)oxy]pyridin-3-yl}piperidin-1-yl)methyl]-1-[(2S)-oxetan-2-ylmethyl]-1H-benzimidazole-6-carboxylate] | 1 | 84 | 20 | 95 |  | 
11 | CCn1cncc1Cn1c(CN2CCC(c3ccnc(OCc4ccc(Cl)cc4F)n3)CC2)nc2ccc(C(=O)O)cc21 [Example 63, 2-[(4-{2-[(4-chloro-2-fluorobenzyl)oxy]pyrimidin-4-yl}piperidin-1-yl)methyl]-1-[(1-ethyl-1H-imidazol-5-yl)methyl]-1H-benzimidazole-6-carboxylic acid] |  |  | 10 | 97 |  | 

Further compounds by falling EC50 (human GLP-1R [2]), results first:

Row | EC50 (human GLP-1R [1]) [nM] | Emax (human GLP-1R [1]) [%] | EC50 (human GLP-1R [2]) [nM] | Emax (human GLP-1R [2]) [%] | Assay 1 Emax (%) (human GLP-1R [1]) | Assay 2 Emax (%) (human GLP-1R [2]) | Structure (SMILES)
12 | 100 | 74 | 6400 | 100 |  |  | N#Cc1ccc(COc2nc(N3CCC4(CC3)CC4c3nc4ccc(C(=O)O)cc4n3CC3CCO3)ccc2F)c(F)c1 (single isomer, unassigned; ent-1) [Example 52]
13 | 12 | 98 | 160 | 100 |  |  | O=C(O)c1ccc2nc(CC3CCC(c4cccc(OCc5ccc(Cl)cc5F)n4)CC3)n(C[C@@H]3CCO3)c2c1 (single isomer, unassigned; isomer 2) [Example 80]
14 | 7.6 | 84 | 130 | 96 |  |  | O=C(O)c1ccc2nc(C3CC34CCN(c3nc(OCc5ccc(Cl)cc5F)ncc3F)CC4)n(CCn3cncn3)c2c1 (single isomer, unassigned) [Example 41, 2-(6-{2-[(4-chloro-2-fluorobenzyl)oxy]-5-fluoropyrimidin-4-yl}-6-azaspiro[2.5]oct-1-yl)-1-[2-(1H-1,2,4-triazol-1-yl)ethyl]-1H-benzimidazole-6-carboxylic acid, trifluoroacetate salt, from P7]
15 | 0.71 | 78 | 19 | 80 |  |  | O=C(O)c1ccc2nc(C3CC34CCN(c3ncc(F)c(OCc5ccc(Cl)cc5F)n3)CC4)n(CC3CCO3)c2c1 (single isomer, unassigned) [Example 50]
16 | 0.38 | 80 | 4.2 | 90 |  |  | N#Cc1ccc(COc2nc(N3CCC4(CC3)CC4c3nc4ccc(C(=O)O)cc4n3C[C@@H]3CCO3)c(F)cc2F)c(F)c1 (mixture of isomers) [Example 56, Ammonium 2-(6-{6-[(4-cyano-2-fluorobenzyl)oxy]-3,5-difluoropyridin-2-yl}-6-azaspiro[2.5]oct-1-yl)-1-[(2S)-oxetan-2-ylmethyl]-1H-benzimidazole-6-carboxylate]
17 | 0.3 | 88 | 4.1 | 98 |  |  | N#Cc1ccc(COc2nc(N3CCC4(CC3)CC4c3nc4ccc(C(=O)O)cc4n3CC3CCO3)c(F)cc2F)c(F)c1 (single isomer, unassigned; ent-1) [Example 57]
